Results: patent publication US4273866A, “Ligand analog-irreversible enzyme inhibitor conjugates and methods for use” (priority 1979, dated 1981)

Columns and labels:
[1] = target: cholinesterase from E.electricus (Electrophorus electricus, UniProt O42275); assay: Inhibition of cholinesterase from E.electricus; type: biochemical; details: 1 mM
Description: (§1) N,N,N-Trimethyl-2-(o-methyl-α-phenylbenzyloxy) ethylammonium methylsulfate(N-methylorphenadrine) prepared by reacting N,N-dimethyl-2-(o-methyl-α-phenylbenzyloxy) ethylamine(orphenadrine)with dimethylsulfate.

[2] = system: human serum cholinesterase; assay: Inhibition of human serum cholinesterase; type: biochemical; details: 1 mM
Description: as §1

[3] = system: acetylcholinesterase; assay: Digoxin in serum assay with Compound I; type: biochemical, E. electricus
Protocol: (§2) A stock solution of Compound I (4.6×10^-3 molar in methanol) is diluted 200-fold with pH 7.0, 0.1 molar phosphate buffer containing 0.1% gelatin. Digoxin antibody is diluted in phosphate-gelatin buffers as indicated in Table I. Fifty microliters of phosphate-gelatin buffer, pH 7.0, containing the indicated concentration of antibody is placed in sample cups of a bichromatic spectrophotometer (model ABA-100® sold by Abbott Laboratories). To each of these 50 μl is added 1 μl of Compound I working solution making the final concentration 4.5×10^-7 molar. The antibody and Compound I (inhibitor) are allowed to incubate for 10-15 minutes at room temperature. Each sample receives 1 .parallel.l of working enzyme solution (9.5×10^-9 molar of E. electricus acetylcholinesterase in pH 7.0 phosphate-gelatin buffer). The final enzyme concentration is 1.9×10^-10 molar. The sample is diluted 1/26 with assay buffer containing acetylthiocholine, as substrate, 5×10^-4 molar and 5,5'-dithiobis-(2 -nitrobenzoic acid) (DTNB), 1.6×10^-4 molar in pH 7.0 phosphate-gelatin buffer. The change in absorbance with time is measured after 5 minutes in the bichromatic analyzer equipped with a 415/550 nm filter at 30° C. The results are as follows:
Normal human serum containing digoxin concentrations listed in the table below are assayed by the procedure set out above.
N-Ethylmaleimide is used to block background sulfhydryl groups in human serum.
Thus, 1 μl of concentrated digoxin antibody in pH 7.0 phosphate-gelatin buffer containing 50 mM of N-methylorphenadrine is added to 50 μl of each serum standard then N-ethylmaleimide is added with mixing to each serum standard to make a working concentration of 1.6 mM. To the serum is also added 1 μl of a solution containing Compound I in pH 7.0, 0.1 molar phosphate-gelatin buffer. The final antibody concentration is 8.0×10^-7 molar and the final concentration of Compound I is 4.5×10^-7. These solutions are allowed to incubate for 12 minutes at which time acetylcholinesterase is added as before. After 26 minutes, the bichromatic spectrophotometer is started and a sample from each cup is diluted 26-fold with assay buffer containing 1.6×10^-5 molar DTNB, 5×10^-4 molar acetyl-β-methylthiocholine iodide, and 1 mM N-methyl-orphenadrine in pH 7.0, 0.1 molar phosphate-gelatin buffer. The final enzyme concentration is about 2×10^-11 molar and the cuvette temperature is 30° C. The change in absorbance after 5 minutes is as follows: […]

[4] = target: T1, E. electricus acetylcholinesterase (Electrophorus electricus, UniProt O42275); assay: Antibody modulation of Compound I inhibitory activity (residual acetylcholinesterase activity); type: biochemical; details: Compound I 4.5 × 10^-7 M
Protocol: as §2, with “C.” for “C. The results are as follows:”

[5] = target: T1, E. electricus acetylcholinesterase; assay: Residual enzyme activity with Compound I, antibody and digoxin in buffer; type: biochemical; details: antibody 4.5×10^-7 molar, after 21 minutes
Protocol: as §2
(§3) The above experiment is repeated except digoxin at a concentration of 2.5×10^-5 molar is added to the sample cups. […] Fifty microliters of phosphate-gelatin buffer is added to a sample cup. The buffer solution either contains 2.5×10^-5 molar digoxin or is a control. To the sample cup is added a final concentration of 9×10^-7 molar digoxin antibody and 4.5×10^-7 molar Compound I. These solutions are allowed to incubate for 15 minutes and then enzyme is added and assayed according to the previous procedure. The results are as follows:
Using the above procedures with the exception that the antibody final concentration in the sample is 4.5×10^-7 molar, various phosphate-gelatin buffer solutions are prepared with the indicated digoxin concentration. Each of these solutions are analyzed by adding antibody and Compound I to the solution as in the previous procedure, allowing a 2.5 minute incubation period to elapse and assaying for the residual enzyme activity after 21 minutes.

[6] = target: T1, E. electricus acetylcholinesterase; assay: Specific modulation of Compound I inhibition by digoxin antibody and digoxin; type: biochemical
Protocol: as §2
as §3, with “procedure.” for “procedure. The results are as follows:”

T1 sequence (O42275 24-633): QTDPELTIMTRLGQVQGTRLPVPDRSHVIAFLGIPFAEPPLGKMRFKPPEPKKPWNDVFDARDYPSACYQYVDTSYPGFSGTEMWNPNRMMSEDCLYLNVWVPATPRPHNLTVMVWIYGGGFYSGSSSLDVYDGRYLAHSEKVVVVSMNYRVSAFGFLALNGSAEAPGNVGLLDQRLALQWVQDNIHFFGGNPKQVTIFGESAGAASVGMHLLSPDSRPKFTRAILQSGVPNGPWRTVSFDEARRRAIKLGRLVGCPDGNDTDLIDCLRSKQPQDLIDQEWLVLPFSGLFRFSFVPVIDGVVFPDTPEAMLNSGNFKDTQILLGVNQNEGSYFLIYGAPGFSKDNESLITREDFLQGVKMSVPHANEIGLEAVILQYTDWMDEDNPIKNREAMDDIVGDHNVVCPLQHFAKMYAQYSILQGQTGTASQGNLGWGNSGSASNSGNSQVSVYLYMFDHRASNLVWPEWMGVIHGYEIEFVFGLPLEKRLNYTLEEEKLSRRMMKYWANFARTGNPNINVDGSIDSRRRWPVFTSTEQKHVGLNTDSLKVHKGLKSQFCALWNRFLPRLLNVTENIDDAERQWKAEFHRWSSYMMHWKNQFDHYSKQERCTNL
Chain of cholinesterase from E.electricus (O42275 24-633): as above

**Q.** Which results are given for `Cc1ccccc1C(OCC[N+](C)(C)C)c1ccccc1` (stereo not drawn) [N-methylorphenadrine, N,N,N-Trimethyl-2-(o-methyl-α-phenylbenzyloxy) ethylammonium methylsulfate]?
**A.** inhibition at 1000 µM [1]: 25%; inhibition of human serum cholinesterase [2]: greater than 99%

**Q.** For `CCOP(=O)(OCCCCCNC(=O)CCCCCNC(=O)OC1CCC2(C)C(CCC3C2CC(O)C2(C)C(C4=CC(=O)OC4)CCC32O)C1)Oc1ccc2ccc[n+](C)c2c1` (stereo not shown) [Compound I], which “change in absorbance after 5 minutes” value ([3]; digoxin in serum 0.1 μM, antibody 8.0×10^-7 molar, Compound I 4.5×10^-7) is on record?
**A.** The value was 0.096 Ad/5 Min.

**Q.** And the “change in absorbance after 5 minutes” value ([3]; digoxin in serum 0.13 μM)?
**A.** Its value is 0.089 Ad/5 Min.

**Q.** What about the “change in absorbance after 5 minutes” value ([3]; digoxin in serum 0.17 μM) of the same molecule?
**A.** The value was 0.083 Ad/5 Min.

**Q.** And the “change in absorbance after 5 minutes” value ([3]; digoxin in serum 0.26 μM)?
**A.** Its value is 0.077 Ad/5 Min.

**Q.** And the “change in absorbance after 5 minutes” value ([3]; digoxin in serum 0.34 μM)?
**A.** Its value is 0.073 Ad/5 Min.

**Q.** And the “change in absorbance after 5 minutes” value ([3]; digoxin in serum 0.51 μM)?
**A.** Its value is 0.063 Ad/5 Min.

**Q.** And the “change in absorbance after 5 minutes” value ([3]; digoxin in serum 0.64 μM)?
**A.** Its value is 0.060 Ad/5 Min.

**Q.** And the “change in absorbance after 5 minutes” value ([3]; digoxin in serum 0.85 μM)?
**A.** Its value is 0.047 Ad/5 Min.

**Q.** And the “change in absorbance after 5 minutes” value ([3]; digoxin in serum 1.30 μM)?
**A.** The value was 0.035 Ad/5 Min.

**Q.** What about the “change in absorbance with time” value ([4]; antibody 9 × 10^-7 M, enzyme 1.9 × 10^-10 M, 10' incubation) of the same molecule?
**A.** The value was 0.161 Ad/5 min.

**Q.** What about the “change in absorbance with time” value ([4]; antibody 9 × 10^-7 M, enzyme 1.9 × 10^-10 M, 21' incubation) of the same molecule?
**A.** Its value is 0.137 Ad/5 min.

**Q.** And the “change in absorbance with time” value ([4]; antibody 9 × 10^-7 M, enzyme 1.9 × 10^-10 M, 43' incubation)?
**A.** Its value is 0.107 Ad/5 min.

**Q.** What about the “change in absorbance with time” value ([4]; antibody 9 × 10^-8 M, enzyme 1.9 × 10^-10 M, 10' incubation) of the same molecule?
**A.** The value was 0.089 Ad/5 min.

**Q.** What about the “change in absorbance with time” value ([4]; antibody 9 × 10^-8 M, enzyme 1.9 × 10^-10 M, 21' incubation) of the same molecule?
**A.** The value was 0.027 Ad/5 min.

**Q.** And the “change in absorbance with time” value ([4]; antibody 9 × 10^-8 M, enzyme 1.9 × 10^-10 M, 43' incubation)?
**A.** The value was 0.005 Ad/5 min.

**Q.** And the “change in absorbance with time” value ([4]; no antibody, enzyme 1.9 × 10^-10 M (enzyme alone 0.220), 10' incubation)?
**A.** Its value is 0.045 Ad/5 min.

**Q.** What about the “change in absorbance with time” value ([4]; no antibody, enzyme 1.9 × 10^-10 M (enzyme alone 0.221), 21' incubation) of the same molecule?
**A.** Its value is 0.015 Ad/5 min.

**Q.** And the “change in absorbance with time” value ([4]; no antibody, enzyme 1.9 × 10^-10 M (enzyme alone 0.222), 43' incubation)?
**A.** The value was 0.003 Ad/5 min.

**Q.** And the “% Activity of Enzyme” value ([5]; digoxin 0.062 μM)?
**A.** Its value is 65%.

**Q.** What about the “% Activity of Enzyme” value ([5]; digoxin 0.125 μM) of the same molecule?
**A.** The value was 65%.

**Q.** And the “% Activity of Enzyme” value ([5]; digoxin 0.25 μM)?
**A.** The value was 62%.

**Q.** What about the “% Activity of Enzyme” value ([5]; digoxin 0.5 μM) of the same molecule?
**A.** The value was 57%.

**Q.** What about the “% Activity of Enzyme” value ([5]; digoxin 1.0 μM) of the same molecule?
**A.** The value was 36%.

**Q.** And the “Ad/5 min. after enzyme-inhibitor incubation time” value ([6]; Enzyme + Compound I + Antibody (9×10^-7 molar), 0.3')?
**A.** The value was 0.160 Ad/5 min.

**Q.** What about the “Ad/5 min. after enzyme-inhibitor incubation time” value ([6]; Enzyme + Compound I + Antibody (9×10^-7 molar), 11') of the same molecule?
**A.** Its value is 0.129 Ad/5 min.

**Q.** What about the “Ad/5 min. after enzyme-inhibitor incubation time” value ([6]; Enzyme + Compound I + Antibody (9×10^-7 molar), 19') of the same molecule?
**A.** The value was 0.115 Ad/5 min.

**Q.** What about the “Ad/5 min. after enzyme-inhibitor incubation time” value ([6]; Enzyme + Compound I + Antibody + Digoxin (2.5×10^-5 molar), 0.3') of the same molecule?
**A.** The value was 0.160 Ad/5 min.

**Q.** What about the “Ad/5 min. after enzyme-inhibitor incubation time” value ([6]; Enzyme + Compound I + Antibody + Digoxin (2.5×10^-5 molar), 11') of the same molecule?
**A.** Its value is 0.068 Ad/5 min.

**Q.** And the “Ad/5 min. after enzyme-inhibitor incubation time” value ([6]; Enzyme + Compound I + Antibody + Digoxin (2.5×10^-5 molar), 19')?
**A.** Its value is 0.038 Ad/5 min.

**Q.** What about the “Ad/5 min. after enzyme-inhibitor incubation time” value ([6]; Enzyme + Compound I, 0.3' (enzyme only 0.174)) of the same molecule?
**A.** Its value is 0.162 Ad/5 min.

**Q.** And the “Ad/5 min. after enzyme-inhibitor incubation time” value ([6]; Enzyme + Compound I, 11' (enzyme only 0.169))?
**A.** Its value is 0.037 Ad/5 min.

**Q.** What about the “Ad/5 min. after enzyme-inhibitor incubation time” value ([6]; Enzyme + Compound I, 19' (enzyme only 0.167)) of the same molecule?
**A.** Its value is 0.013 Ad/5 min.
